This is an account of results in patent US20230220021A1, “CYCLIC PEPTIDE INHIBITORS OF PSD-95 AND USES THEREOF” (University of Copenhagen, priority 2020, published 2023).

Where a SMILES comes first, the peptide text is derived from it. Where no end group is shown, it is not given here. [ ]: non-standard residue; d: D form.

For data set [1], the target named is T1, PSD-95-PDZ2 (Homo sapiens, UniProt P78352).
T1 construct: 7xHis (N); made in house; host or cells: Escherichia coli B21 pLys (for the mutants, 'as previously described')
Briefly: Isothermal titration calorimetry (ITC). It counts as binding.
Method: Isothermal titration calorimetry (ITC). The ITC assays were performed in NaPi 50 nM, 50 nM NaCl, pH 7.2 buffer filtered with a Corning® bottle-top vacuum filter system of a pore size of 0.22 μM, that was used to dissolve the peptides. Proteins were dialyzed against this buffer using Amicon® Ultra-15 centrifugal filter units, with a MWCO 3000 Da.
This assay was performed on an ITC200. The instrument differential power (DP) was set to 10 and the syringe rotating speed to 600 RPM. The assay setup consisted of introducing the protein inside the cell and the peptide (titrant) on the syringe. Calorimetry was performed at 25° C. Each analysis was performed in triplicates. Furthermore, several runs of peptide into buffer were performed in order to remove injection residual heat. Runs were analyzed with Origin 7.0 software (OriginLab).

A further data set deals with plasmin (Homo sapiens, UniProt P00747). Kind of data set: In vitro plasmin stability. Type of data set: in vitro ADME. The settings on record: 100 μM ligand, PBS with plasmin (10 μg/mL), 37° C., 0 to 360 minutes, mean n=3. The method, then: The in vitro plasmin stability of peptides with SEQ ID NOs: 12, 68, 99 and 163 were determined by incubating 100 μM of ligand in phosphate buffered saline (PBS) supplemented with plasmin (10 μg/mL) at 37° C. for 0 to 360 minutes. At selected time points during the incubation, the ligands were extracted from 80 μL of assay matrix by treatment with 80 μL of 50% acetonitrile (ACN). The samples were filtered and analysed by UPLC to determine the amount of ligand remaining. LC-MS analysis was performed to confirm ligand integrity and identify cleavage sites.
plasmin, sequence (P00747 581-810 limits assumed, species assumed): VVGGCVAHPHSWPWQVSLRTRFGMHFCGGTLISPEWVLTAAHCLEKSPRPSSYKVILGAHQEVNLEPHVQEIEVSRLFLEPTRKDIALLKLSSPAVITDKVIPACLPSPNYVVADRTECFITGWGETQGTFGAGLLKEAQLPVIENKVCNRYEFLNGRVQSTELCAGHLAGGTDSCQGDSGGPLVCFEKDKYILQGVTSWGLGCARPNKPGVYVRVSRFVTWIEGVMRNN
plasmin, sequence (P00747 97-580 partner limits assumed, species assumed): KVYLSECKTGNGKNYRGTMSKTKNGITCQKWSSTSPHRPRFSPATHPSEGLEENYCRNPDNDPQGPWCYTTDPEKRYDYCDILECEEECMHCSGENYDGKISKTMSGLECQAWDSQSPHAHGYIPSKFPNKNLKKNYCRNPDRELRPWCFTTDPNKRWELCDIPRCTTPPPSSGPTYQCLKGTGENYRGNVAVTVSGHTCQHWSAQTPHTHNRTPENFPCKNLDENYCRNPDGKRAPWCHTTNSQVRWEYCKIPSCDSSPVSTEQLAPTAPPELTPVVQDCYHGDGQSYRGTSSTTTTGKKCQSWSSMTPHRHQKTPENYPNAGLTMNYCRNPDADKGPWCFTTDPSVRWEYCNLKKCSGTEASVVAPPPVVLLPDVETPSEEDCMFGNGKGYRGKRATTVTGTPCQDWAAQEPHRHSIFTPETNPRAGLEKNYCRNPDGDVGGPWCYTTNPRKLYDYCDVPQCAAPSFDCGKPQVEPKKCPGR

In data set [2] the target is T1, PSD-95-PDZ2. Kind of data set: Fluorescence polarization (FP) competition assay against cyclic nNOS TAMRA probe. It counts as binding. To be noted: for Ki: FP competition, cyclic nNOS TAMRA probe, mean of triplicates, N.B. = not binding, read-out: Ki.
The target of data set [3] is T2, PSD-95-PDZ2 (Homo sapiens, UniProt P78352, V178C).
T2 construct: screened with the TAMRA labelled PSD-95-PDZ2-V178C domain; 7xHis (N); made in house
Kind of data set: SPOT peptide array screening with TAMRA labelled PSD-95-PDZ2. It counts as binding. In outline:
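First, arrays were blocked 1 h and scanned to record background. Next, 50 nM labelled PDZ2-V178C in PBS pH 7.2 with 0.5% BSA bound for 1 h protected from light. Finally, after washes, 532 nm fluorescence was measured and background-corrected.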

Where [4] appears, read: plasmin (10 μg/mL) in phosphate buffered saline.

For the compound `CC[C@H](C)[C@@H]1NC(=O)[C@H]([C@@H](C)O)NC(=O)[C@H](CCCCN)NC(=O)[C@@H]2CCCN2C(=O)[C@H](CCC(=O)O)NC(=O)CNC(=O)[C@H](CC(=O)O)NC(=O)CNC(=O)[C@H](Cc2c[nH]c3ccccc23)NC(=O)[C@H](Cc2ccccc2)NC(=O)[C@H]([C@@H](C)O)NC(=O)[C@H]([C@@H](C)O)NC(=O)[C@H](CCC(=O)O)NC(=O)[C@H](CC(C)C)NC(=O)[C@H](Cc2cncn2C)NC(=O)[C@H]([C@@H](C)O)NC(=O)[C@H](CCC(N)=O)NC(=O)CNC(=O)[C@H]2CCCN2C(=O)[C@H](CCC(N)=O)NC(=O)[C@H]([C@@H](C)O)NC(=O)[C@H](C(C)C)NC(=O)[C@H](CCCNC(=N)N)NC1=O` [SEQ ID NO: 16], the “fold improved binding affinity compared to the wild-type peptide” value at PSD-95-PDZ2 [1] (ITC Kd) is on record as 75 fold.

For the compound `CC[C@H](C)[C@@H]1NC(=O)[C@H]([C@@H](C)O)NC(=O)[C@H](CCCCN)NC(=O)[C@@H]2CCCN2C(=O)[C@H]([C@@H](C)O)NC(=O)CNC(=O)[C@H](CC(=O)O)NC(=O)CNC(=O)[C@H]([C@@H](C)O)NC(=O)[C@H](Cc2ccccc2)NC(=O)[C@H]([C@@H](C)O)NC(=O)[C@H]([C@@H](C)O)NC(=O)[C@H](CCC(=O)O)NC(=O)[C@H](CC(C)C)NC(=O)[C@H](Cc2c[nH]cn2)NC(=O)[C@H]([C@@H](C)O)NC(=O)[C@H](CCC(N)=O)NC(=O)CNC(=O)[C@H]2CCCN2C(=O)[C@H](CCC(N)=O)NC(=O)[C@H]([C@@H](C)O)NC(=O)[C@H](C(C)C)NC(=O)[C@H](CCCNC(=N)N)NC1=O` [compound 12], at plasmin (setting [4]), the half-life (in general, the time needed for the level to fall by half in the phase considered) at 100 μM came to 1.18 h. On PSD-95-PDZ2 [1] (ITC, 25° C.), the ΔH is -32.392 ± 2.861 kJ/mol and the “−ΔS*T” value stood at 1.464 ± 1.29 kJ/mol.

Consider `CC[C@H](C)[C@@H]1NC(=O)[C@H]([C@@H](C)O)NC(=O)[C@H](CCCCN)NC(=O)[C@@H]2CCCN2C(=O)[C@H](CCC(=O)O)NC(=O)CNC(=O)[C@H](CC(=O)O)NC(=O)CNC(=O)[C@H](Cc2c[nH]c3ccccc23)NC(=O)[C@H](Cc2ccccc2)NC(=O)[C@H]([C@@H](C)O)NC(=O)[C@H]([C@@H](C)O)NC(=O)[C@H](CCC(=O)O)NC(=O)[C@H](CC(C)C)NC(=O)[C@H](Cc2c[nH]cn2)NC(=O)[C@H]([C@@H](C)O)NC(=O)[C@H](CCC(N)=O)NC(=O)CNC(=O)[C@H]2CCCN2C(=O)[C@H](CCC(N)=O)NC(=O)[C@H]([C@@H](C)O)NC(=O)[C@H](C(C)C)NC(=O)[C@H](CCCNC(=N)N)NC1=O` [compound 14] (cyclo(THLETTFWGDGEPKTIRVTQ[dP]GQ)), for which, at PSD-95-PDZ2 [2], the Ki – broadly, a measure of affinity in units of concentration, obtained from inhibition or displacement – is 0.11 µM. Further, on PSD-95-PDZ2 [1] (ITC, 25° C.), the ΔH was -30.158 ± 3.507 kJ/mol and the “−ΔS*T” value was -8.9902 ± 3.176 kJ/mol. Moreover, the Kd (in general, the free concentration of one partner at which half of the binding sites on the other are occupied at equilibrium, for simple one-to-one binding) on PSD-95-PDZ2 [1] (ITC, 25° C., read-out: Kd) is 0.139 ± 0.0182 µM. Besides, the “Average (fluorescence raw data)” value on PSD-95-PDZ2 [3] (non-proteogenic AA scan, Hit1(T112W T116E) peptide scaffold, SPOT array incubated with TAMRA-labelled PSD-95-PDZ2, average of Pep. 1-3) is recorded as 10.70 10^6. Further, the “Fluor. Pep. 1 (fluorescence raw data)” value on PSD-95-PDZ2 [3] (non-proteogenic AA scan, Hit1(T112W T116E) peptide scaffold, SPOT array incubated with TAMRA-labelled PSD-95-PDZ2, replicate peptide 1) is reported as 9.88 10^6. Also, the “Fluor. Pep. 2 (fluorescence raw data)” value on PSD-95-PDZ2 [3] (non-proteogenic AA scan, Hit1(T112W T116E) peptide scaffold, SPOT array incubated with TAMRA-labelled PSD-95-PDZ2, replicate peptide 2) is recorded as 12.86 10^6. The “Fluor. Pep. 3 (fluorescence raw data)” value on PSD-95-PDZ2 [3] (non-proteogenic AA scan, Hit1(T112W T116E) peptide scaffold, SPOT array incubated with TAMRA-labelled PSD-95-PDZ2, replicate peptide 3) is reported as 9.36 10^6.

In the case of `CC[C@H](C)[C@@H]1NC(=O)[C@H]([C@@H](C)O)NC(=O)[C@H](CCCCN)NC(=O)[C@@H]2CCCN2C(=O)[C@H](CCC(=O)O)NC(=O)CNC(=O)[C@H](CC(=O)O)NC(=O)CNC(=O)[C@H](Cc2c[nH]c3ccccc23)NC(=O)[C@H](Cc2ccccc2)NC(=O)[C@H]([C@@H](C)O)NC(=O)[C@H]([C@@H](C)O)NC(=O)[C@H](CCC(=O)O)NC(=O)[C@H](CC(C)C)NC(=O)[C@H](Cc2cncn2C)NC(=O)[C@H]([C@@H](C)O)NC(=O)[C@H](CCC(N)=O)NC(=O)CNC(=O)[C@H]2CCCN2C(=O)[C@H](CCC(N)=O)NC(=O)[C@H]([C@@H](C)O)NC(=O)[C@H](C(C)C)NC(=O)[C@H](CCCNC(=N)N)NC1=O` [compound 16], at PSD-95-PDZ2 [1] (ITC, 25° C.), the ΔH was -27.773 ± 0.5142 kJ/mol and the “−ΔS*T” value is -15.313 ± 1 kJ/mol.

For the compound `CC[C@H](C)[C@@H]1NC(=O)[C@H]([C@@H](C)O)NC(=O)[C@H](C)NC(=O)[C@@H]2CCCN2C(=O)[C@H]([C@@H](C)O)NC(=O)CNC(=O)[C@H](CC(=O)O)NC(=O)CNC(=O)[C@H]([C@@H](C)O)NC(=O)[C@H](Cc2ccccc2)NC(=O)[C@H]([C@@H](C)O)NC(=O)[C@H]([C@@H](C)O)NC(=O)[C@H](CCC(=O)O)NC(=O)[C@H](CC(C)C)NC(=O)[C@H](Cc2c[nH]cn2)NC(=O)[C@H]([C@@H](C)O)NC(=O)[C@H](CCC(N)=O)NC(=O)CNC(=O)[C@H]2CCCN2C(=O)[C@H](CCC(N)=O)NC(=O)[C@H]([C@@H](C)O)NC(=O)[C@H](C(C)C)NC(=O)[C@H](CCCNC(=N)N)NC1=O` [compound 68] (cyclo(THLETTFTGDGTPATIRVTQ[dP]GQ)), the Ki at PSD-95-PDZ2 [2] amounted to 1.43 µM. Further, the “Relative Ki (Ki mut/Ki WT)” value at PSD-95-PDZ2 [2] (FP inhibition constant normalized to WT value) worked out at 0.95. Moreover, the half-life at 100 μM at plasmin (setting [4]) is 6 h. The “Normalized SPOT fluorescence (Mut/WT)” value on PSD-95-PDZ2 [3] (SPOT array, TAMRA labelled PSD-95-PDZ2-V178C, normalized to WT) amounted to 0.39.

On to `CC[C@H](C)[C@@H]1NC(=O)[C@H]([C@@H](C)O)NC(=O)[C@H](CCCCN)NC(=O)[C@@H]2CCCN2C(=O)[C@H]([C@@H](C)O)NC(=O)CNC(=O)[C@H](CC(=O)O)NC(=O)CNC(=O)[C@H]([C@@H](C)O)NC(=O)[C@H](Cc2ccccc2)NC(=O)[C@H]([C@@H](C)O)NC(=O)[C@H]([C@@H](C)O)NC(=O)[C@H](CCC(=O)O)NC(=O)[C@H](CC(C)C)NC(=O)[C@H](Cc2c[nH]cn2)NC(=O)[C@H]([C@@H](C)O)NC(=O)[C@H](CCC(N)=O)NC(=O)CNC(=O)[C@H]2CCCN2C(=O)[C@H](CCC(N)=O)NC(=O)[C@H]([C@@H](C)O)NC(=O)[C@H](C(C)C)NC(=O)[C@H](CCCNC(=N)N)N(C)C1=O` [compound 99], for which the Ki on PSD-95-PDZ2 [2] came out at 0.99 µM. Besides, at plasmin (setting [4]), the half-life at 100 μM was 2.83 h.

For the compound `CC[C@H](C)[C@@H]1NC(=O)[C@H]([C@@H](C)O)NC(=O)[C@H](CCCCN)NC(=O)[C@@H]2CCCN2C(=O)[C@H]([C@@H](C)O)NC(=O)CNC(=O)[C@H](CC(=O)O)NC(=O)CNC(=O)[C@H](Cc2c[nH]c3ccccc23)NC(=O)[C@H](Cc2ccccc2)NC(=O)[C@H]([C@@H](C)O)NC(=O)[C@H]([C@@H](C)O)NC(=O)[C@H](CCC(=O)O)NC(=O)[C@H](CC(C)C)NC(=O)[C@H](Cc2c[nH]cn2)NC(=O)[C@H]([C@@H](C)O)NC(=O)[C@H](CCC(N)=O)NC(=O)CNC(=O)[C@H]2CCCN2C(=O)[C@H](CCC(N)=O)NC(=O)[C@H]([C@@H](C)O)NC(=O)[C@H](C(C)C)NC(=O)[C@H](CCCNC(=N)N)NC1=O` [compound 163] (cyclo(THLETTFWGDGTPKTIRVTQ[dP]GQ)), the half-life at 100 μM at plasmin (plasmin (isolated protease, 10 μg/mL) in PBS) is 1.4 h.

“THLETTFTGDGTPKTIRVTQpGQE (THLETTFTGDGTPKTIRVTQ[dP]GQE) [SEQ ID NO: 137]”: in the data set with PSD-95-PDZ2 [1] (25° C., tested up to 100 μM), the “affinity (Kd) by ITC” value is reported as “did not show binding”.
